Measurements reported in patent publication US9713651B2, “Compositions, methods, and systems for the synthesis and use of imaging agents” (Lantheus Medical Imaging, Inc., priority 2012, dated 2017).

system: hepatocytes; assay: Metabolic profiling of imaging agents in cryopreserved hepatocytes (HPLC with radiodetection); type: in vitro ADME; details: hepatocytes 1×10^6 cells/mL, 37° C./5% CO2; species and incubation time not given
Procedure: Cryopreserved hepatocytes were purchased from Celsis/In Vitro Technologies, Inc. (Baltimore, Md.) and stored at −150° C. prior to use. Multiple lots of hepatocytes for human (mixed sexes 5-donor pool), primate (male, rhesus monkey), dog (male, beagle), rabbit (male, New Zealand white) and rat (male, Sprague-Dawley) were used. On the day of the study, hepatocytes in cryopreserved vials were vented to release any liquid N2 then placed into a 37° C. water bath for 75-90 seconds to thaw. The hepatocytes were transferred into pre-warmed KHB and centrifuged for 5 min at 50×g. The supernatant was discarded and the hepatocytes re-suspended in KHB at a concentration of 1×10^6 cells/mL. Cell viability was confirmed by Trypan blue exclusion.
Test compounds were incubated in hepatocytes (1×10^6 cells/mL; 0.5 mL) were incubated for 0, 15, 30, 60 or 180 min at 37° C./5% CO2 then transferred directly into acetonitrile (1.0 mL), vortexed for 30 s and centrifuged at 2500×g for 20 min. The supernatant was then transferred to a new centrifuge tube, acetonitrile evaporated under a stream of nitrogen in a heating block at 37° C. and, following re-constitution in water, assayed by HPLC with radiodetection.
Extracted samples and standards were analyzed on an Agilent 1100 HPLC (Agilent Technologies, Burlington, Mass.) using a Phenomenex Luna C18 column (5μ; 4.6×150 mm), maintained at ambient temperature (25° C.), and a flow rate of 1.0 mL/min. Mobile phase A contained 0.1% formic acid in water, and mobile phase B contained 0.1% formic acid in acetonitrile. A linear gradient from 5 to 90% B over 15 min was used for elution. A 5 min post-time of 5% B was used to re-equilibrate the column. Radioactive products were recorded using in-line γ- or β-flow detectors (INUS, Tampa, Fla.).

Structure (SMILES)	% Parent Remaining
CC(C)(C)n1ncc(OCc2ccc([Si](F)(C(C)(C)C)C(C)(C)C)cc2)c(Cl)c1=O [Example 62B, 2-(tert-butyl)-4-chloro-5-((4-(di-tert-butylfluorosilyl)benzyl)oxy)pyridazin-3 (2H)-one]	98%
CC(C)(C)n1ncc(OCc2cccc(COCCF)c2)c(Cl)c1=O [Example 35, 2-(tert-butyl)-4-chloro-5-((3-((2-fluoroethoxy)methyl)benzyl)oxy)pyridazin-3(2H)-one]	30%
CC(C)(C)n1ncc(OCc2ccc(C(=O)OCCCF)cc2)c(Cl)c1=O [Example 57B, 3-fluoropropyl 4-(((1-(tert-butyl)-5-chloro-6-oxo-1,6-dihydropyridazin-4-yl)oxy)methyl)benzoate]	31%
CC(C)(C)n1ncc(OCc2ccc(OCCCF)c(Cl)c2)c(Cl)c1=O [Example 25, 2-(tert-butyl)-4-chloro-5-((3-chloro-4-(3-fluoropropoxyl)benzyl)oxy)pyridazin-3(2H)-one]	71%
Cc1c(OCc2ccc(COCCF)cc2)cnn(C(C)(C)C)c1=O [Example 40]	34%
CC(C)n1ncc(OCc2ccc(COCCF)cc2)c(Cl)c1=O [Example 1, 4-chloro-5-((4-((2-fluoroethoxy)methyl)benzyl)oxy)-2-isopropylpyridazin-3(2H)-one]	20%
[2H]C([2H])(OCCF)c1ccc(COc2cnn(C(C)(C)C)c(=O)c2Cl)cc1 [Example 9, 2-(tert-butyl)-4-chloro-5-((4-((2-fluoroethoxy)-d2-methyl)benzyl)oxy)pyridazin-3(2H)-one]	73%
CC(OCCF)c1ccc(COc2cnn(C(C)(C)C)c(=O)c2Cl)cc1 (stereo not drawn) [Example 16, 2-(tert-butyl)-4-chloro-5-((4-(1-(2-fluoroethoxyl)ethyl)benzyl)oxy)pyridazin-3(2H)-one]	20%
CC(C)(C)n1ncc(OCc2ccc(-c3cnc(F)nc3)cc2)c(Cl)c1=O [Example 48C, 2-(tert-butyl)-4-chloro-5-((4-(2-fluoropyrimidin-5-yl)benzyl)oxy)pyridazin-3(2H)-one]	95%
CC(C)(C)n1ncc(OCc2ccc(C(=O)OCCF)cc2)c(Cl)c1=O [Example 45, 2-fluoroethyl 4-(((1-(tert-butyl)-5-chloro-6-oxo-1,6-dihydropyridazin-4-yl)oxy)methyl)benzoate]	19%
CC(C)(C)n1ncc(CCc2ccc(COCCF)cc2)c(Cl)c1=O [Example 61]	6%
CC(C)(C)n1ncc(OCc2ccc(C#CCCF)cc2)c(Cl)c1=O [Example 43, 2-(tert-butyl)-4-chloro-5-((4-(4-fluorobut-1-yn-1-yl)benzyl)oxy)pyridazin-3(2H)-one]	63%
